# Results taken from US11739070B2, “C5A receptor modulators” (IDORSIA PHARMACEUTICALS LTD, priority 2018, dated 2023).
# Biological target: T1, C5AR1 (Homo sapiens, UniProt P21730)
# T1 construct: host or cells: CHO-K1
# T1 sequence (P21730 1-350): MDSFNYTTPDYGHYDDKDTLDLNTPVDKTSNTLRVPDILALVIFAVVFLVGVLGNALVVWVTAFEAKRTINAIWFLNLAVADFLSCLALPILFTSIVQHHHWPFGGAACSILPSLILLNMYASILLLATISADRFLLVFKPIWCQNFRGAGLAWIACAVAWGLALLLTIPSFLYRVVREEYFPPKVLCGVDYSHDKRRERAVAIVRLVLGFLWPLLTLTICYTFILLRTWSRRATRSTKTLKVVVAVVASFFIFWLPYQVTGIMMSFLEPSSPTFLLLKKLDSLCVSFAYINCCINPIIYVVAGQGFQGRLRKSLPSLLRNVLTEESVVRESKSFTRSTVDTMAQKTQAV
# Experiment: hC5a DISCO IC50 assay (PathHunter beta-arrestin, antagonist mode)
# Assay type: cell-based
# Conditions: CHO-K1 C5AR1 beta-arrestin cell line; antagonist vs 1-10 nM C5a agonist; geometric mean values; read-out: C5aR IC50
# Outline: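 Antagonist added first, then 1-10 nM C5a agonist; cells incubated 1.5 h at 37 °C. Beta-arrestin signal developed with PathHunter detection reagent, 45 min at RT. IC50 in nmol/l from serial antagonist dilutions, reported as geometric mean of several measurements.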
row,SMILES,IC50 [nM]
1,"COc1cccc2c1n(Cc1ccccc1C1CC1)c(=O)n2C1CCN(c2c(C)cccc2F)CC1 [Example 223, 3-(2-Cyclopropyl-benzyl)-1-[1-(2-fluoro-6-methyl-phenyl)-piperidin-4-yl]-4-methoxy-1,3-dihydro-benzoimidazol-2-one]",130
2,"COc1cccc2c1n(Cc1ccccc1OCC1CC1)c(=O)n2C1CCN(c2c(C)cccc2F)CC1 [Example 224, 3-(2-Cyclopropylmethoxy-benzyl)-1-[1-(2-fluoro-6-methyl-phenyl)-piperidin-4-yl]-4-methoxy-1,3-dihydro-benzoimidazol-2-one]",18
3,"COc1cccc2c1n(Cc1ccccc1OC1CCC1)c(=O)n2C1CCN(c2c(C)cccc2F)CC1 [Example 226, 3-(2-Cyclobutoxy-benzyl)-1-[1-(2-fluoro-6-methyl-phenyl)-piperidin-4-yl]-4-methoxy-1,3-dihydro-benzoimidazol-2-one]",36
4,"COc1cccc2c1n(Cc1ccccc1C(F)(F)F)c(=O)n2C1CCN(c2c(C)cccc2F)CC1(C)C (stereo not drawn) [Example 227, 1-[1-(2-Fluoro-6-methyl-phenyl)-3,3-dimethyl-piperidin-4-yl]-4-methoxy-3-(2-trifluoromethyl-benzyl)-1,3-dihydro-benzoimidazol-2-one]",30
5,"COc1cncc2c1n(Cc1ccccc1C(F)(F)F)c(=O)n2C1CCN(c2c(C)cccc2F)CC1 [Example 229, 3-[1-(2-Fluoro-6-methyl-phenyl)-piperidin-4-yl]-7-methoxy-1-(2-trifluoromethyl-benzyl)-1,3-dihydro-imidazo[4,5-c]pyridin-2-one]",268
6,"COc1cccc2c1n(Cc1ccccc1C(F)(F)F)c(=O)n2C1CCN(c2ncccc2C)CC1 [Example 232, 4-Methoxy-1-(3′-methyl-3,4,5,6-tetrahydro-2H-[1,2′]bipyridinyl-4-yl)-3-(2-trifluoromethyl-benzyl)-1,3-dihydro-benzoimidazol-2-one]",82

# The remaining compounds from weak to strong by IC50, led by results:
row,IC50 [nM],SMILES
1,259,"COc1cccc2c1n(Cc1ccccc1C(F)(F)F)c(=O)n2C1CCN(C(=O)OC(C)(C)C)CC1(C)C (stereo not drawn) [Example 228, 4-[4-Methoxy-2-oxo-3-(2-trifluoromethyl-benzyl)-2,3-dihydro-benzoimidazol-1-yl]-3,3-dimethyl-piperidine-1-carboxylic acid tert-butyl ester]"
2,195,"COc1cccnc1N1CCC(n2c(=O)n(Cc3ccccc3C(F)(F)F)c3c(OC)cccc32)CC1 [Example 233, 4-Methoxy-1-(3′-methoxy-3,4,5,6-tetrahydro-2H-[1,2′]bipyridinyl-4-yl)-3-(2-trifluoromethyl-benzyl)-1,3-dihydro-benzoimidazol-2-one]"
3,129,"COc1cccc2c1n(Cc1ccccc1C(F)(F)F)c(=O)n2C1CCN(c2ccccc2O)CC1 [Example 230, 1-[1-(2-Hydroxy-phenyl)-piperidin-4-yl]-4-methoxy-3-(2-trifluoromethyl-benzyl)-1,3-dihydro-benzoimidazol-2-one]"
4,66,"COc1cccc2c1n(Cc1ccccc1C(F)(F)F)c(=O)n2C1CCN(c2ccccc2OCc2ccccc2)CC1 [Example 231, 1-[1-(2-Benzyloxy-phenyl)-piperidin-4-yl]-4-methoxy-3-(2-trifluoromethyl-benzyl)-1,3-dihydro-benzoimidazol-2-one]"
5,40,"COc1cccc2c1n(Cc1ccccc1OC1COC1)c(=O)n2C1CCN(c2c(C)cccc2F)CC1 [Example 225, 1-[1-(2-Fluoro-6-methyl-phenyl)-piperidin-4-yl]-4-methoxy-3-[2-(oxetan-3-yloxy)-benzyl]-1,3-dihydro-benzoimidazol-2-one]"
6,17,"COc1nccc(C)c1N1CCC(n2c(=O)n(Cc3ccccc3C(F)(F)F)c3c(OC)cccc32)CC1 [Example 234, 4-Methoxy-1-(2′-methoxy-4′-methyl-3,4,5,6-tetrahydro-2H-[1,3′]bipyridinyl-4-yl)-3-(2-trifluoromethyl-benzyl)-1,3-dihydro-benzoimidazol-2-one]"
